Patent US10765114B2, “4-amino-6-(pyridyl and 2-substitutedphenyl)-picolinates and 6-amino-2-(pyridyl and 2-substitutedphenyl)-pyrimidine-4-carboxylates and their use as herbicides” (Dow AgroSciences LLC, priority 2013, dated 2020)
Like-named read-outs stand apart in the source and are kept apart here.

Tests used:
[1] = system: Key Broadleaf Weed and Crop Species; experiment: Post-Emergent Test II (Table 5); format: in vivo; conditions: post-emergence, 336 h; for pest or weed control at 70 g/ha: application rate 70 (kg ai/ha; footnote: g ai/ha); for pest or weed control at 140 g/ha: application rate 140 (kg ai/ha; footnote: g ai/ha)
Outline: (§1)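 Post-emergence greenhouse spray, 1st-2nd true leaf stage; track sprayer, 187 L/ha; acetone/DMSO stock diluted in aqueous acetone/IPA/DMSO with Atplus 411F and Triton X-155; rates 1× to 1/16×; subirrigated; visual injury 0 (none) to 100% (complete kill) at 14 days.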

[2] = system: Key Grass and Sedge Weeds as well as Grass Crops; experiment: Post-Emergent Test II (Table 6); format: in vivo; conditions: post-emergence, 336 h, 14 days after application; for pest or weed control at 70 g/ha: 70 g ai/ha; for pest or weed control at 140 g/ha: 140 g ai/ha
Outline: as §1

[3] = Abutilon theophrasti, ABUTH: velvetleaf (Abutilon theophrasti), read-out: Visual Growth Reduction (%) 14 Days After Application ABUTH
[4] = Amaranthus retroflexus, AMARE: redroot pigweed (Amaranthus retroflexus), read-out: Visual Growth Reduction (%) 14 Days After Application AMARE
[5] = Brassica napus, BRSSS: oilseed rape, canola (Brassica napus), read-out: Visual Growth Reduction (%) 14 Days After Application BRSSS
[6] = Chenopodium album, CHEAL: lambsquarters (Chenopodium album), read-out: Visual Growth Reduction (%) 14 Days After Application CHEAL
[7] = Euphorbia heterophylla, EPHHL: wild poinsettia (Euphorbia heterophylla), read-out: Visual Growth Reduction (%) 14 Days After Application EPHHL
[8] = Helianthus annuus, HELAN: sunflower (Helianthus annuus), read-out: Visual Growth Reduction (%) 14 Days After Application HELAN
[9] = Viola tricolor, VIOTR: wild pansy (Viola tricolor), read-out: Visual Growth Reduction (%) 14 Days After Application VIOTR
[10] = CYPSS, read-out: Visual Growth Reduction (%) 14 Days After Application CYPSS
[11] = DIGSA: crabgrass (Digitaria sanguinalis), read-out: Visual Growth Reduction (%) 14 Days After Application DIGSA
[12] = ECHSS, read-out: Visual Growth Reduction (%) 14 Days After Application ECHSS
[13] = ORYSS (crop), read-out: Visual Growth Reduction (%) 14 Days After Application ORYSS
[14] = SETFA: giant foxtail (Setaria faberi), read-out: Visual Growth Reduction (%) 14 Days After Application SETFA
[15] = SORVU: grain sorghum (Sorghum vulgare), read-out: Visual Growth Reduction (%) 14 Days After Application SORVU
[16] = TRZSS (crop), read-out: Visual Growth Reduction (%) 14 Days After Application TRZSS
[17] = ZEAMX: maize, corn (Zea mays), read-out: Visual Growth Reduction (%) 14 Days After Application ZEAMX

COC(=O)c1nc(-c2ccc(OC)nc2)c(F)c(N)c1Cl [Compound 62]
melting point: 168 to 169 °C | pest or weed control at 70 g/ha [1, 3]: 95 to 100% | pest or weed control at 140 g/ha [1, 3]: 95 to 100% | pest or weed control at 70 g/ha [1, 4]: 95 to 100% | pest or weed control at 140 g/ha [1, 4]: 95 to 100% | pest or weed control at 70 g/ha [1, 5]: 60 to 74% | pest or weed control at 140 g/ha [1, 5]: 60 to 74% | pest or weed control at 70 g/ha [1, 6]: 95 to 100% | pest or weed control at 140 g/ha [1, 6]: 95 to 100% | pest or weed control at 70 g/ha [1, 7]: 95 to 100% | pest or weed control at 140 g/ha [1, 7]: 95 to 100% | pest or weed control at 70 g/ha [1, 8]: 95 to 100% | pest or weed control at 140 g/ha [1, 8]: 95 to 100% | pest or weed control at 70 g/ha [1, 9]: 0 to 29% | pest or weed control at 140 g/ha [1, 9]: 0 to 29% | pest or weed control at 70 g/ha [2, 10]: 0 to 29% | pest or weed control at 140 g/ha [2, 10]: 30 to 44% | pest or weed control at 70 g/ha [2, 11]: 75 to 84% | pest or weed control at 140 g/ha [2, 11]: 60 to 74% | pest or weed control at 70 g/ha [2, 12]: 95 to 100% | pest or weed control at 140 g/ha [2, 12]: 95 to 100% | pest or weed control at 70 g/ha [2, 13]: 0 to 29% | pest or weed control at 140 g/ha [2, 13]: 0 to 29% | pest or weed control at 70 g/ha [2, 14]: 60 to 74% | pest or weed control at 140 g/ha [2, 14]: 85 to 94% | pest or weed control at 70 g/ha [2, 15]: 60 to 74% | pest or weed control at 140 g/ha [2, 15]: 75 to 84% | pest or weed control at 70 g/ha [2, 16]: 45 to 59% | pest or weed control at 140 g/ha [2, 16]: 45 to 59% | pest or weed control at 70 g/ha [2, 17]: 95 to 100% | pest or weed control at 140 g/ha [2, 17]: 95 to 100%

COc1nc(Cl)ccc1-c1cc(N)c(Cl)c(C(=O)O)n1 [Compound 57]
melting point: 170 to 171 °C | pest or weed control at 70 g/ha [1, 3]: 85 to 94% | pest or weed control at 140 g/ha [1, 3]: 85 to 94% | pest or weed control at 70 g/ha [1, 4]: 95 to 100% | pest or weed control at 140 g/ha [1, 4]: 95 to 100% | pest or weed control at 70 g/ha [1, 5]: 75 to 84% | pest or weed control at 140 g/ha [1, 5]: 75 to 84% | pest or weed control at 70 g/ha [1, 6]: 85 to 94% | pest or weed control at 140 g/ha [1, 6]: 85 to 94% | pest or weed control at 70 g/ha [1, 7]: 0 to 29% | pest or weed control at 140 g/ha [1, 7]: 0 to 29% | pest or weed control at 70 g/ha [1, 8]: 85 to 94% | pest or weed control at 140 g/ha [1, 8]: 85 to 94% | pest or weed control at 70 g/ha [1, 9]: 0 to 29% | pest or weed control at 140 g/ha [1, 9]: 0 to 29% | pest or weed control at 70 g/ha [2, 10]: 0 to 29% | pest or weed control at 140 g/ha [2, 10]: 0 to 29% | pest or weed control at 70 g/ha [2, 11]: 0 to 29% | pest or weed control at 140 g/ha [2, 11]: 0 to 29% | pest or weed control at 70 g/ha [2, 12]: 0 to 29% | pest or weed control at 140 g/ha [2, 12]: 0 to 29% | pest or weed control at 70 g/ha [2, 13]: 0 to 29% | pest or weed control at 140 g/ha [2, 13]: 0 to 29% | pest or weed control at 70 g/ha [2, 14]: 0 to 29% | pest or weed control at 140 g/ha [2, 14]: 0 to 29% | pest or weed control at 70 g/ha [2, 15]: 0 to 29% | pest or weed control at 140 g/ha [2, 15]: 0 to 29% | pest or weed control at 70 g/ha [2, 16]: 0 to 29% | pest or weed control at 140 g/ha [2, 16]: 0 to 29% | pest or weed control at 70 g/ha [2, 17]: 0 to 29% | pest or weed control at 140 g/ha [2, 17]: 0 to 29%

COC(=O)c1nc(-c2ccc(C(F)(F)F)nc2)c(Cl)c(N)c1Cl [Compound 83]
melting point: 148 to 150 °C | pest or weed control at 70 g/ha [1, 3]: 60 to 74% | pest or weed control at 140 g/ha [1, 3]: 60 to 74% | pest or weed control at 70 g/ha [1, 4]: 0 to 29% | pest or weed control at 140 g/ha [1, 4]: 0 to 29% | pest or weed control at 70 g/ha [1, 5]: 45 to 59% | pest or weed control at 140 g/ha [1, 5]: 45 to 59% | pest or weed control at 70 g/ha [1, 6]: 60 to 74% | pest or weed control at 140 g/ha [1, 6]: 75 to 84% | pest or weed control at 70 g/ha [1, 7]: 0 to 29% | pest or weed control at 140 g/ha [1, 7]: 30 to 44% | pest or weed control at 70 g/ha [1, 8]: 85 to 94% | pest or weed control at 140 g/ha [1, 8]: 85 to 94% | pest or weed control at 70 g/ha [1, 9]: 0 to 29% | pest or weed control at 140 g/ha [1, 9]: 0 to 29% | pest or weed control at 70 g/ha [2, 10]: 30 to 44% | pest or weed control at 140 g/ha [2, 10]: 45 to 59% | pest or weed control at 70 g/ha [2, 11]: 60 to 74% | pest or weed control at 140 g/ha [2, 11]: 75 to 84% | pest or weed control at 70 g/ha [2, 12]: 60 to 74% | pest or weed control at 140 g/ha [2, 12]: 75 to 84% | pest or weed control at 70 g/ha [2, 13]: 0 to 29% | pest or weed control at 140 g/ha [2, 13]: 0 to 29% | pest or weed control at 70 g/ha [2, 14]: 75 to 84% | pest or weed control at 140 g/ha [2, 14]: 75 to 84% | pest or weed control at 70 g/ha [2, 15]: 75 to 84% | pest or weed control at 140 g/ha [2, 15]: 75 to 84% | pest or weed control at 70 g/ha [2, 16]: 45 to 59% | pest or weed control at 140 g/ha [2, 16]: 60 to 74% | pest or weed control at 70 g/ha [2, 17]: 75 to 84% | pest or weed control at 140 g/ha [2, 17]: 75 to 84%

Nc1c(F)c(-c2ccc(C(F)(F)F)nc2)nc(C(=O)O)c1Cl [Compound 46, 4-amino-5-chloro-3-fluoro-6′-(trifluoromethyl)-[2,3′-bipyridine]-6-carboxylic acid]
melting point: 164 °C | pest or weed control at 70 g/ha [1, 3]: 85 to 94% | pest or weed control at 140 g/ha [1, 3]: 95 to 100% | pest or weed control at 70 g/ha [1, 4]: 95 to 100% | pest or weed control at 140 g/ha [1, 4]: 95 to 100% | pest or weed control at 70 g/ha [1, 5]: 95 to 100% | pest or weed control at 140 g/ha [1, 5]: 95 to 100% | pest or weed control at 70 g/ha [1, 6]: 95 to 100% | pest or weed control at 140 g/ha [1, 6]: 95 to 100% | pest or weed control at 70 g/ha [1, 7]: 95 to 100% | pest or weed control at 140 g/ha [1, 7]: 95 to 100% | pest or weed control at 70 g/ha [1, 8]: 95 to 100% | pest or weed control at 140 g/ha [1, 8]: 95 to 100% | pest or weed control at 70 g/ha [1, 9]: 85 to 94% | pest or weed control at 140 g/ha [1, 9]: 95 to 100% | pest or weed control at 70 g/ha [2, 10]: 95 to 100% | pest or weed control at 140 g/ha [2, 10]: 95 to 100% | pest or weed control at 70 g/ha [2, 11]: 95 to 100% | pest or weed control at 140 g/ha [2, 11]: 95 to 100% | pest or weed control at 70 g/ha [2, 12]: 95 to 100% | pest or weed control at 140 g/ha [2, 12]: 95 to 100% | pest or weed control at 70 g/ha [2, 13]: 75 to 84% | pest or weed control at 140 g/ha [2, 13]: 95 to 100% | pest or weed control at 70 g/ha [2, 14]: 95 to 100% | pest or weed control at 140 g/ha [2, 14]: 95 to 100% | pest or weed control at 70 g/ha [2, 15]: 85 to 94% | pest or weed control at 140 g/ha [2, 15]: 85 to 94% | pest or weed control at 70 g/ha [2, 16]: 75 to 84% | pest or weed control at 140 g/ha [2, 16]: 85 to 94% | pest or weed control at 70 g/ha [2, 17]: 85 to 94% | pest or weed control at 140 g/ha [2, 17]: 85 to 94%
